Laboratory results taken from patent US20070149404A1, “Microbicidal compositions” (BASF AKTIENGESELLSCHAFT, priority 2003, published 2007).

Tests used:
Escherichia coli = test: Intrinsic activity, microtitre plate method, EC; type: cell-based; design: key: rating 0 = no activity to 5 = biostatic, may be biocide
Experimental: (§1) The chemistries were tested for their activity against a range of organisms via a microtitre plate method. The test organisms were: • ML—Micrococcus luteus • SA—Staphylococcus aureus • EC—Escherichia coli • PA—Pseudomonas aeruginosa • CF—Citrobacter freundii • PM—Proteus mirabilis • CA—Candida albicans • SC—Saccharomyces cerevisiae • AN—Aspergillus niger • PF—Penicillium funiculosum • AA—Alternaria alternata
(§2) Using the following rating scale: • 0=no activity • 1=minimal inhibition • 2=inhibition • 3=clear inhibition • 4=clear inhibition biostatic, may be biocide activity • 5=biostatic, may be biocide activity
(§3) Readings of 4 and possibly 3 were considered to be valid for biocidal applications.

Bacteria = test: Intrinsic activity, microtitre plate method, mean score over bacteria; type: cell-based, ML, SA, EC, PA, CF, PM; conditions: performance against organisms/no of organisms, 0 to <3 poor, >3 inhibition, >4 biostasis, biocidal activity
Experimental: as §1, §2, §3

Micrococcus luteus = test: Intrinsic activity, microtitre plate method, ML; type: cell-based; design: key: rating 0 = no activity to 5 = biostatic, may be biocide
Experimental: as §1, §2, §3

Alternaria alternata = test: Intrinsic activity, microtitre plate method, AA; type: cell-based; design: key: rating 0 = no activity to 5 = biostatic, may be biocide
Experimental: as §1, §2, §3

Penicillium funiculosum = test: Intrinsic activity, microtitre plate method, PF; type: cell-based; design: key: rating 0 = no activity to 5 = biostatic, may be biocide
Experimental: as §1, §2, §3

Pseudomonas aeruginosa = test: Intrinsic activity, microtitre plate method, PA; type: cell-based; design: key: rating 0 = no activity to 5 = biostatic, may be biocide
Experimental: as §1, §2, §3

Proteus mirabilis = test: Intrinsic activity, microtitre plate method, PM; type: cell-based; design: key: rating 0 = no activity to 5 = biostatic, may be biocide
Experimental: as §1, §2, §3

Saccharomyces cerevisiae = test: Intrinsic activity, microtitre plate method, SC; type: cell-based; design: key: rating 0 = no activity to 5 = biostatic, may be biocide
Experimental: as §1, §2, §3

Candida albicans = test: Intrinsic activity, microtitre plate method, CA; type: cell-based; design: key: rating 0 = no activity to 5 = biostatic, may be biocide
Experimental: as §1, §2, §3

Fungi [1] = test: Intrinsic activity, microtitre plate method, mean score over fungi; type: cell-based, CA, SC, AN, PF, AA; conditions: performance against organisms/no of organisms, 0 to <3 poor, >3 inhibition, >4 biostasis, biocidal activity
Experimental: as §1, §2, §3

Citrobacter freundii = test: Intrinsic activity, microtitre plate method, CF; type: cell-based; design: key: rating 0 = no activity to 5 = biostatic, may be biocide
Experimental: as §1, §2, §3

Aspergillus niger = test: Intrinsic activity, microtitre plate method, AN; type: cell-based; design: key: rating 0 = no activity to 5 = biostatic, may be biocide
Experimental: as §1, §2, §3

[2] = Solubility in water at room temperature
Staphylococcus aureus = test: Intrinsic activity, microtitre plate method, SA; type: cell-based; design: key: 0 = no activity to 5 = biostatic, may be biocide activity
Experimental: as §1, §2, §3

fungi [3] = test: Efficacy against fungal growth on painted plaster surface (BS3900 G6); type: cell-based; conditions: 0.5% in paint; for Improvement against fungal growth on the plaster surface: as applied or after leaching; for MEAN FUNGAL GROWTH RATING - PLASTER SUBSTRATE 28 days leached / MEAN FUNGAL GROWTH RATING - PLASTER SUBSTRATE 56 days leached: constant running water for 72 hours; for MEAN FUNGAL GROWTH RATING - PLASTER SUBSTRATE 28 days leached / MEAN FUNGAL GROWTH RATING - PLASTER SUBSTRATE 56 days leached / MEAN FUNGAL GROWTH RATING - PLASTER SUBSTRATE 28 days as applied / MEAN FUNGAL GROWTH RATING - PLASTER SUBSTRATE 56 days as applied: mean of ratings 0-5; for % Improved After 56 days leached (fungal, plaster): leached 72 hours; for % Improved After 56 days leached (fungal, plaster) / % Improved After 56 days as applied (fungal, plaster): versus unpreserved paint; for MEAN FUNGAL GROWTH RATING - PLASTER SUBSTRATE 28 days as applied / MEAN FUNGAL GROWTH RATING - PLASTER SUBSTRATE 56 days as applied: no leaching with water; for % Improved After 56 days as applied (fungal, plaster): no leaching
Experimental: Testing was performed according to the BS3900 G6 and BBA MOAT 33 methods for evaluation versus fungi and algae, respectively. The methods involve painting a substrate panel with the coating and leaching under running water for 72 hours. […] Performance is judged by comparing with suitable control samples ie without biocide, a positive control and for fungi with substrate panels that have not been leached.
(§4) Performance rating on painted test substrates (Score of 0, 1 and 2 is considered as a pass) • 0=no growth • 1=trace of growth • 2=growth on 1-10% of test face • 3=growth on 10-30% of test face • 4=growth on 30-70% of test face
(§5) 5=growth on 70-100% of test face.

fungi [4] = test: Efficacy against fungal growth on painted wooden surface (BS3900 G6); type: cell-based; conditions: 0.5% in paint
Experimental: (§6) Testing was performed according to the BS3900 G6 and BBA MOAT 33 methods for evaluation versus fungi and algae, respectively. The methods involve painting a substrate panel with the coating and leaching under running water for 72 hours. The substrates are incubated for 56 days after being inoculated with fungi or algae. Performance is judged by comparing with suitable control samples ie without biocide, a positive control and for fungi with substrate panels that have not been leached.
as §4, §5

algae = test: Efficacy against algal growth on painted plaster surface (BBA MOAT 33); type: cell-based; conditions: 0.5% in paint; for MEAN ALGAL GROWTH RATING 28 days / MEAN ALGAL GROWTH RATING 56 days / % Improved after 56 days (algal growth): painted plaster; for MEAN ALGAL GROWTH RATING 28 days / MEAN ALGAL GROWTH RATING 56 days: leached 72 hours, mean of ratings 0-5; for MEAN ALGAL GROWTH RATING 28 days: 28 days after inoculation; for MEAN ALGAL GROWTH RATING 56 days: 56 days after inoculation; for % Improved after 56 days (algal growth): versus unpreserved paint
Experimental: as §6, §4, §5

test bacteria and fungi = test: Intrinsic activity against bacteria and fungi, microtitre plate method, summary in words; type: cell-based; conditions: at both concentrations (1000 and 500 ppm a.i.)
Experimental: as §1, §2, §3

Row | Molecule | EC rating (Escherichia coli; 500 ppm a.i.) | EC rating (Escherichia coli; 1000 ppm a.i.) | Bacteria Mean Score (Bacteria; 500 ppm a.i.) | Bacteria Mean Score (Bacteria; 1000 ppm a.i.) | ML rating (Micrococcus luteus; 500 ppm a.i.) | ML rating (Micrococcus luteus; 1000 ppm a.i.) | AA rating (Alternaria alternata; 500 ppm a.i.) | AA rating (Alternaria alternata; 1000 ppm a.i.) | PF rating (Penicillium funiculosum; 500 ppm a.i.) | PF rating (Penicillium funiculosum; 1000 ppm a.i.) | PA rating (Pseudomonas aeruginosa; 500 ppm a.i.) | PA rating (Pseudomonas aeruginosa; 1000 ppm a.i.) | PM rating (Proteus mirabilis; 500 ppm a.i.) | PM rating (Proteus mirabilis; 1000 ppm a.i.) | SC rating (Saccharomyces cerevisiae; 500 ppm a.i.) | SC rating (Saccharomyces cerevisiae; 1000 ppm a.i.) | CA rating (Candida albicans; 500 ppm a.i.) | CA rating (Candida albicans; 1000 ppm a.i.) | Fungi Mean Score (Fungi [1]; 500 ppm a.i.) | Fungi Mean Score (Fungi [1]; 1000 ppm a.i.) | further results
1 | O=C(O)COc1ccc(Cl)cc1Cl [2,4-D, 2,4-Dichlorphenoxy acetic acid] | 0 | 3 | 1.0 | 3.5 | 2 | 5 | 5 | 5 | 3 | 5 | 0 | 3 | 1 | 2 | 1 | 3 | 5 | 5 | 2.8 | 4.6 | CF rating (Citrobacter freundii; 500 ppm a.i.): 0; CF rating (Citrobacter freundii; 1000 ppm a.i.): 5; AN rating (Aspergillus niger; 500 ppm a.i.): 0; AN rating (Aspergillus niger; 1000 ppm a.i.): 5; Aq. Solubility (ppm) [2]: 600 ppm; SA rating (Staphylococcus aureus; 500 ppm a.i.): 3; SA rating (Staphylococcus aureus; 1000 ppm a.i.): 3
2 | Fc1ccc([C@@]2(Cn3cncn3)O[C@H]2c2ccccc2Cl)cc1 [Epoxiconazole, cis-3-(2-Chlorphenyl)-2-(4-fluorphenyl)-2-(triazol-1-ylmethyl)-oxiran] | 0 | 0 | 0.0 | 0.0 | 0 | 0 | 5 | 5 | 3 | 3 | 0 | 0 | 0 | 0 | 5 | 5 | 5 | 5 | 4.6 | 4.6 | Improvement against fungal growth on the plaster surface (fungi [3]): exhibited an improvement; MEAN FUNGAL GROWTH RATING - PLASTER SUBSTRATE 28 days leached (fungi [3]): 1.5; MEAN FUNGAL GROWTH RATING - PLASTER SUBSTRATE 56 days leached (fungi [3]): 2.5; % Improved After 56 days leached (fungal, plaster) (fungi [3]): 29%; MEAN FUNGAL GROWTH RATING - PLASTER SUBSTRATE 28 days as applied (fungi [3]): 3.5; MEAN FUNGAL GROWTH RATING - PLASTER SUBSTRATE 56 days as applied (fungi [3]): 3.5; % Improved After 56 days as applied (fungal, plaster) (fungi [3]): 30%; Improvement against fungal growth on the wood surface (fungi [4]): only showed marginal improvement; CF rating (Citrobacter freundii; 500 ppm a.i.): 0; CF rating (Citrobacter freundii; 1000 ppm a.i.): 0; AN rating (Aspergillus niger; 500 ppm a.i.): 5; AN rating (Aspergillus niger; 1000 ppm a.i.): 5; SA rating (Staphylococcus aureus; 500 ppm a.i.): 0; SA rating (Staphylococcus aureus; 1000 ppm a.i.): 0; MEAN ALGAL GROWTH RATING 28 days (algae): 2.5; MEAN ALGAL GROWTH RATING 56 days (algae): 2.5; % Improved after 56 days (algal growth) (algae): 37.5%; Improvement against algal growth on the plaster surface (algae): exhibited an improvement; Spectrum of activity (test bacteria and fungi): only display antifungal activity
3 | CC(Cc1ccc(C(C)(C)C)cc1)CN1C[C@@H](C)O[C@@H](C)C1 (stereo partly drawn) [Fenpropimorph, 4-[2-Methyl-3-(p-tert.butyl-phenyl)-propyl]-2,6-cis-dimethylmorpholin] | 0 | 0 | 0.0 | 0.3 | 0 | 2 | 5 | 5 | 5 | 5 | 0 | 0 | 0 | 0 | 5 | 5 | 5 | 5 | 5.0 | 5.0 | Improvement against fungal growth on the plaster surface (fungi [3]): exhibited an improvement; MEAN FUNGAL GROWTH RATING - PLASTER SUBSTRATE 28 days leached (fungi [3]): 3 (3=growth on 10-30% of test face); MEAN FUNGAL GROWTH RATING - PLASTER SUBSTRATE 56 days leached (fungi [3]): 3 (3=growth on 10-30% of test face); % Improved After 56 days leached (fungal, plaster) (fungi [3]): 14%; MEAN FUNGAL GROWTH RATING - PLASTER SUBSTRATE 28 days as applied (fungi [3]): 4 (4=growth on 30-70% of test face); MEAN FUNGAL GROWTH RATING - PLASTER SUBSTRATE 56 days as applied (fungi [3]): 4 (4=growth on 30-70% of test face); % Improved After 56 days as applied (fungal, plaster) (fungi [3]): 20%; Improvement against fungal growth on the wood surface (fungi [4]): only showed marginal improvement; CF rating (Citrobacter freundii; 500 ppm a.i.): 0; CF rating (Citrobacter freundii; 1000 ppm a.i.): 0; AN rating (Aspergillus niger; 500 ppm a.i.): 5; AN rating (Aspergillus niger; 1000 ppm a.i.): 5; SA rating (Staphylococcus aureus; 500 ppm a.i.): 0; SA rating (Staphylococcus aureus; 1000 ppm a.i.): 0; MEAN ALGAL GROWTH RATING 28 days (algae): 2 (2=growth on 1-10% of test face); MEAN ALGAL GROWTH RATING 56 days (algae): 3 (3=growth on 10-30% of test face); % Improved after 56 days (algal growth) (algae): 25.0%; Improvement against algal growth on the plaster surface (algae): exhibited an improvement; Spectrum of activity (test bacteria and fungi): only display antifungal activity
4 | O=C(Nc1ccc(F)cc1)c1cccc(Oc2cccc(C(F)(F)F)c2)n1 [Picolinafen] | – | – | – | – | – | – | – | – | – | – | – | – | – | – | – | – | – | – | – | – | MEAN FUNGAL GROWTH RATING - PLASTER SUBSTRATE 28 days leached (fungi [3]): 3 (3=growth on 10-30% of test face); MEAN FUNGAL GROWTH RATING - PLASTER SUBSTRATE 56 days leached (fungi [3]): 3.5; % Improved After 56 days leached (fungal, plaster) (fungi [3]): 0%; MEAN FUNGAL GROWTH RATING - PLASTER SUBSTRATE 28 days as applied (fungi [3]): 4.5; MEAN FUNGAL GROWTH RATING - PLASTER SUBSTRATE 56 days as applied (fungi [3]): 5 (5=growth on 70-100% of test face); % Improved After 56 days as applied (fungal, plaster) (fungi [3]): 0%; Improvement against fungal growth on the wood surface (fungi [4]): only showed marginal improvement; Aq. Solubility (ppm) [2]: 0.004 ppm; MEAN ALGAL GROWTH RATING 28 days (algae): 1.5; MEAN ALGAL GROWTH RATING 56 days (algae): 2.5; % Improved after 56 days (algal growth) (algae): 37.5%; Improvement against algal growth on the plaster surface (algae): exhibited an improvement
5 | Metiram | – | – | – | – | – | – | – | – | – | – | – | – | – | – | – | – | – | – | – | – | Aq. Solubility (ppm) [2]: 2.7 ppm
